Here are results for nine molecules from US20190359645A1, “2'3'-CYCLIC DINUCLEOTIDES COMPRISING CARBOCYCLIC NUCLEOTIDE” (Institute of Organic Chemistry and Biochemistry ASCR, V.V.I., priority 2018, published 2019).

The assay deals with WT STING (Homo sapiens, UniProt Q86WV6, H232R). The experiment in a line: Digitonin assay using 293T wtSTING-FL reporter cells. The conditions noted are these: 293T wtSTING-FL cells, digitonin buffer 30 min, then 5 h, ISRE firefly luciferase reporter. The arrangement: host or cells: 293T (ATCC CRL-3216), stably transfected; also carries the 4xISRE firefly luciferase reporter. The assay is classed as cell-based. The text has this: Two complementary oligonucleotides of the sequence […] […] […] […] (SEQ ID NO: 1) and […] […] (SEQ ID NO:2) containing four interferon-sensitive response elements (ISRE) were synthesized by Sigma Aldrich (Czech Republic, Prague). The oligonucleotides were mixed in equal molar amounts, hybridized, and cleaved by restriction endonucleases HindIII (cat. #. R^0104S, NEB, Ipswich, USA) and BglII (cat. # R^0144S, NEB, Ipswich, USA). Ultimately, they were ligated into plasmid pGL4.27 (cat. # E6651, Promega, Madison, USA) linearized with the same enzymes. As a result, the sequence with four ISRE sites was placed upstream of the minimum promoter of firefly luciferase reporter gene.
WT STING, sequence (Q86WV6 whole entry H232R): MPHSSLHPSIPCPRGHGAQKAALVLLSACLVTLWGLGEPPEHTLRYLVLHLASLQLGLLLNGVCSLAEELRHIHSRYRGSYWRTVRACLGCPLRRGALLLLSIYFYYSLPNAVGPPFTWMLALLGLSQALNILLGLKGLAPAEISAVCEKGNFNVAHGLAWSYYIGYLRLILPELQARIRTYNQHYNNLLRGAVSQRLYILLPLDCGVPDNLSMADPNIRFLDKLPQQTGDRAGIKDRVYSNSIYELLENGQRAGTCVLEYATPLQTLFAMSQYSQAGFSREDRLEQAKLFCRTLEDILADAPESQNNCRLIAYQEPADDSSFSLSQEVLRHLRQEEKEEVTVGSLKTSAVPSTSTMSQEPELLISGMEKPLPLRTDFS
293T cells (cat. # CRL-3216, ATCC, Manassas, USA) were seeded a day before transfection at density 125,000 cells per cm^2 onto poly-D-lysine (cat. # P6407, Sigma Aldrich, Czech Republic) coated six well plates in antibiotic free DMEM with high glucose (cat. # D5796, Sigma Aldrich, Czech Republic) supplemented with 10% heat inactivated FBS (cat. # S1520, Biowest, Riverside, USA). On the day of transfection, 2.5 μg of the plasmid pUNO1-hSTING-WT (cat. # punol-hstingwt, InvivoGen, San Diego, USA,) encoding human wild type STING (WT STING) was diluted in 125 μL OptiMEM medium (cat. #31985062, ThermoFisher, Waltham, USA) and mixed with 125 μL of the same medium containing 12.5 μL of Lipofectamine 2000 (cat. #11668019, ThermoFisher, Waltham, USA). After 5 minutes incubation at room temperature (RT), 250 μL of the mixture was added dropwise to the cells in one well. Cells were incubated 36 hours at 37° C. with 5% CO2, and then detached with 0.05% Trypsin and 0.22 g/L EDTA (both cat. # L0941, Biowest, Riverside, USA).
Transfected cells were seeded onto poly-D-lysine coated six well plates at density 50,000 cells per 1 cm^2 in DMEM medium with high glucose containing 10% heat inactivated FBS, […] blasticidin (cat. # ant-bl-05, InvivoGen, San Diego, USA), 0.06 mg/ml Penicillin G and 0.1 mg/ml Streptomycin Sulfate (both cat. #. L0018, Biowest, Riverside, USA). The medium was replenished every 3-4 days until visible colonies of cells resistant to blasticidin were formed.
Blasticidin resistant cells stably expressing WT STING were further transfected with […] plasmid following the same procedure as described above. The transfected cells were selected for the resistance to 300 μg/mL hygromycin (cat. #. 10687010, ThermoFisher, Waltham, USA) in DMEM with high glucose containing 10% heat inactivated FBS, […] blasticidin, 0.06 mg/ml Penicillin G and 0.1 mg/ml Streptomycin Sulfate. Homogeneous culture of stably double transfected cells was prepared by limiting dilution of cells in 96 well plates and wells with cells were selected that originated from a single cell. These cells were expanded, and expression of WT STING was confirmed by western blot using monoclonal mouse anti STING antibodies (cat. #. MAB7169, 1:1000 dilution; […] cat. #. HAF007, 1:2000 dilution, both from R&D Systems, Minneapolis, USA), and by induction of firefly luciferase expression in the presence of 50 μM STING agonist 2′3′ cGAMP (cat. # tlrl-nacga23, InvivoGen, San Diego, USA). Genomic DNA from the transfected cells was amplified with primers pUNO1_Seq_F ([…]) (SEQ ID NO:3) and pUNO1_Seq_R ([…]) (SEQ ID NO:4) that were complementary to pUNO1 plasmid and the presence of WT STING gene in the transfected cells was confirmed by DNA sequencing.
293T wtSTING-FL cells were seeded at density of 250,000 cells per cm^2 onto 96 well poly-D-lysine coated plates in 100 μl DMEM with high glucose supplemented with 10% heat inactivated FBS. […]

[1] abbreviates: read-out: Digitonin assay EC50 WT STING.

Molecules are shown by their SMILES. Like-named read-outs stand apart in the source and are kept apart here.

As to `Nc1ncc2ncn([C@@H]3O[C@@H]4COP(=O)(O)OC5C(O)[C@@H](COP(=O)(O)OC4C3O)C[C@H]5n3cnc4c(=O)[nH]c(N)nc43)c2n1` (stereo partly drawn) [Compound 106, (6R,8R,15R,17R)-17-(2-amino-6-oxo-6,9-dihydro-1H-purin-9-yl)-8-(2-amino-9H-purin-9-yl)-3,9,12,18-tetrahydroxy-2,4,7,11,13-pentaoxa-3λ^5,12λ^5-diphosphatricyclo[13.2.1.0^6,10]octadecane-3,12-dione], the EC50 under setting [1] stood at 200 nM. Same read-out and setting: then `Nc1ncnc2c1ncn2[C@@H]1O[C@@H]2COP(=O)(S)O[C@@H]3[C@H](F)[C@@H](COP(=O)(S)O[C@H]2[C@H]1F)C[C@H]3n1cnc2c(=O)[nH]cnc21` (single isomer, unassigned) [Compound 128c], with 60 nM. `Nc1nc2c(ncn2[C@@H]2C[C@@H]3COP(=O)(O)OC4C(O)[C@H](n5cnc6c(N)ncnc65)O[C@@H]4COP(O)(=S)OC2C3O)c(=O)[nH]1` (stereo partly drawn) [Compound 101, 2-amino-9-[(6R,8R,15R,17R)-8-(6-amino-9H-purin-9-yl)-3,9,12,18-tetrahydroxy-12-oxo-3-sulfanylidene-2,4,7,11,13-pentaoxa-3λ^5,12λ^5-diphosphatricyclo[13.2.1.0^6,10]octadecan-17-yl]-6,9-dihydro-1H-purin-6-one] registered an EC50 (Digitonin assay EC50 WT STING) of 10 nM. For the molecule `Nc1nc2c(ncn2[C@@H]2C[C@@H]3COP(=O)(O)OC4C(O)[C@H](n5cnc6c(N)nc(F)nc65)O[C@@H]4COP(=O)(O)OC2C3O)c(=O)[nH]1` (stereo partly drawn) [Compound 103, (6R,8R,15R,17R)-8-(6-amino-2-fluoro-9H-purin-9-yl)-17-(2-amino-6-oxo-6,9-dihydro-1H-purin-9-yl)-3,9,12,18-tetrahydroxy-2,4,7,11,13-pentaoxa-3λ^5,12λ^5-diphosphatricyclo[13.2.1.0^6,10]octadecane-3,12-dione], the EC50 under setting [1] was found to be 1500 nM. The same measure, in the same setting: the same measure for `Nc1ncnc2c1ncn2[C@@H]1O[C@@H]2COP(=O)(O)O[C@@H]3[C@H](F)[C@@H](COP(=O)(O)O[C@H]2[C@H]1F)C[C@H]3n1cnc2c(=O)[nH]cnc21` [Compound 127]: 30 nM; for `Nc1nc2c(ncn2[C@@H]2C[C@@H]3COP(=O)(O)OC4C(O)[C@H](n5cnc6c(Cl)ncnc65)O[C@@H]4COP(=O)(O)OC2C3O)c(=O)[nH]1` (stereo partly drawn) [Compound 115, (6R,8R,15R,17R)-17-(2-amino-6-oxo-6,9-dihydro-1H-purin-9-yl)-8-(6-chloro-9H-purin-9-yl)-3,9,12,18-tetrahydroxy-2,4,7,11,13-pentaoxa-3λ^5,12λ^5-diphosphatricyclo[13.2.1.0^6,10]octadecane-3,12-dione]: 70 nM; for `Nc1nc2c(ncn2[C@@H]2C[C@@H]3COP(=O)(S)OC4C(O)[C@H](n5cnc6c(N)ncnc65)O[C@@H]4COP(=O)(O)OC2C3O)c(=O)[nH]1` (stereo partly drawn) [Compound 118, (6R,8R,15R,17R)-17-(2-amino-6-oxo-6,9-dihydro-1H-purin-9-yl)-8-(6-amino-9H-purin-9-yl)-3,9,18-trihydroxy-12-sulfanyl-2,4,7,11,13-pentaoxa-3λ^5,12λ^5-diphosphatricyclo[13.2.1.0^6,10]octadecane-3,12-dione]: 130 nM.

`C#Cc1cn([C@@H]2O[C@@H]3COP(=O)(O)OC4C(O)[C@@H](COP(=O)(O)OC3C2O)C[C@H]4n2cnc3c(=O)[nH]c(N)nc32)c2ncnc(N)c12` (stereo partly drawn) [Compound 114, (6R,8R,15R,17R)-8-{4-amino-5-ethynyl-7H-pyrrolo 2,3-dlpyrimidin-7-yl}-17-(2-amino-6-oxo-6,9-dihydro-1H-purin-9-yl)-3,9,12,18-tetrahydroxy-2,4,7,11,13-pentaoxa-3λ^5,12λ^5-diphosphatricyclo[13.2.1.0^6,10]octadecane-3,12-dione]: under setting [1], the EC50 is 400 nM. The same measure, in the same setting: the same measure for `Nc1ncc2ncn([C@@H]3O[C@@H]4COP(=O)(O)OC5C(O)[C@@H](COP(=O)(O)OC4C3O)C[C@H]5n3cnc4c(=O)[nH]cnc43)c2n1` (stereo partly drawn) [Compound 119, (6R,8R,15R,17R)-8-(2-amino-9H-purin-9-yl)-3,9,12,18-tetrahydroxy-17-(6-oxo-6,9-dihydro-1H-purin-9-yl)-2,4,7,11,13-pentaoxa-3λ^5,12λ^5-diphosphatricyclo[13.2.1.0^6,10]octadecane-3,12-dione]: 400 nM.
